Experimental findings from ChEMBL document CHEMBL3585242, “Pyridine Nucleosides Neopetrosides A and B from a Marine Neopetrosia sp. Sponge. Synthesis of Neopetroside A and Its β-Riboside Analogue” (J Nat Prod, 2015) are described below.

The source made the active and inactive calls. The rule behind the calls is not given here.

Series [1] relates to C2C12. Briefly: Upregulation of mitochondrial function in mouse C2C12 cells assessed as increase in mitochondrial oxygen consumption rate at 10 uM after 1 hr relative to control. In kind it is functional, cell-based.
Series [2] concerns C2C12. The series can be described thus: Cytotoxicity against mouse C2C12 cells assessed as cell viability up to 100 uM after 24 hrs by CellTox green assay. The format is cell-based. The conditions noted are these: c2c12, 24 h.
The test system of series [3] is C2C12. The series can be described thus: Upregulation of mitochondrial function in mouse C2C12 cells assessed as increase in mitochondrial ATP level at 10 uM after 1 hr by ToxGlo assay relative to control. The format is functional, cell-based.

`O=C([O-])c1ccc[n+]([C@H]2O[C@H](COC(=O)c3ccc(O)cc3)[C@@H](O)[C@H]2O)c1`: the result in the series on C2C12 [1] and in the series with C2C12 [3] was Active. Further, in the series with C2C12 [2], the Activity result is recorded as “Non-toxic”.
